This assay concerns the target T1, AXOR109 (Homo sapiens, UniProt Q8TDU6).
T1 construct: expressed in transfected cells; host or cells: melanophore cells, transfected by electroporation
T1 sequence (Q8TDU6 1-330): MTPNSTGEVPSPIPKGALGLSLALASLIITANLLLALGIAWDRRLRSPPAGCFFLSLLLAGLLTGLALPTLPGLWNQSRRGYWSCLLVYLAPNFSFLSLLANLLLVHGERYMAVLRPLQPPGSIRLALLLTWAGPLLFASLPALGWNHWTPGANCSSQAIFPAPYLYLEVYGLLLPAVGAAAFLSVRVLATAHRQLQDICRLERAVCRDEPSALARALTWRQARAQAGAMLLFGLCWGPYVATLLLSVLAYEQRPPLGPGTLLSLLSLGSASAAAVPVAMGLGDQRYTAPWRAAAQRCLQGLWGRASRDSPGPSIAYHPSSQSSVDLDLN
As to the kind of experiment: Human AXOR109/Melanophore Assay. To be noted: melanophore assay; for Emax: 1 h, normalized to alpha-MSH system max; for EC50: AXOR109 transfected melanophores. It counts as cell-based. Summed up: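 Readout is melanosome dispersion in melanophores electroporated with human AXOR109, in buffer containing 10 nM melatonin and 1% DMSO. Transmittance was read before and after 1 h compound exposure across 11-point 3-fold dilutions. Response was normalized to 200 nM alpha-MSH as system max, and pEC50 was obtained from a Hill fit.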

We go through 16 molecules from patent publication US20090069302A1 (SMITHKLINE BEECHAM CORPORATION, priority 2006, published 2009).

The Emax is the maximal effect, on the per cent scale that the assay sets. A word on the EC50: it is the concentration at which the effect is half-maximal. High values mean weaker potency, low ones greater potency.

For `COc1ccc(S(=O)(=O)N(C)CCN(C)S(=O)(=O)c2ccc(OC)c(OC)c2)cc1` [Example 15, N-methyl-N-[2-(methyl{[4-(methyloxy)phenyl]sulfonyl}amino)ethyl]-3,4-bis(methyloxy)benzenesulfonamide], the maximum response (Emax) was in the range of 76 to 100% and the EC50 is 126 to 1000 nM.

In the case of `COc1ccc(S(=O)(=O)N2CCC(=O)N(S(=O)(=O)c3ccc(OC)c(OC)c3)CC2)cc1OC` [Example 28, 1,4-bis{[3,4-bis(methyloxy)phenyl]sulfonyl}hexahydro-5H-1,4-diazepin-5-one], the Emax is 51 to 75% and the EC50 was 126 to 1000 nM.

As to `COc1ccc(S(=O)(=O)N(C)C(C)C(C)N(C)S(=O)(=O)c2ccc(OC)c(OC)c2)cc1OC` (centres unmarked) [Example 55, N,N′-2,3-butanediylbis[N-methyl-3,4-bis(methyloxy)benzenesulfonamide]], the Emax was 51 to 75% and the EC50 was 126 to 1000 nM.

Molecule `COc1ccc(S(=O)(=O)N2CCN(S(=O)(=O)c3ccc(OC)c(OC)c3)C(=O)C2)cc1OC` [Example 76, 1,4-bis{[3,4-bis(methyloxy)phenyl]sulfonyl}-2-piperazinone] showed an Emax of 51 to 75% and an EC50 of 1260 to 10000 nM.

In turn, `COc1ccc(S(=O)(=O)N2CC(C)N(S(=O)(=O)c3ccc(OC)c(OC)c3)CC2C)cc1OC` (centres unmarked) [Example 18, 1,4-bis{[3,4-bis(methyloxy)phenyl]sulfonyl}-2,5-dimethylpiperazine] gave an Emax of 51 to 75% and an EC50 of under 126 nM.

`COc1cccc(S(=O)(=O)N2[C@H](C)CN(S(=O)(=O)c3ccc(OC)c(OC)c3)C[C@@H]2C)c1` [Example 80] showed an Emax of 51 to 75% and an EC50 of 1260 to 10000 nM.

Consider `CCCN([C@H]1CCN(S(=O)(=O)c2ccc(OC)c(OC)c2)C1)S(=O)(=O)c1ccc(OC)c(OC)c1` [Example 61, N-((3S)-1-{[3,4-bis(methyloxy)phenyl]sulfonyl}-3-pyrrolidinyl)-3,4-bis(methyloxy)-N-propylbenzenesulfonamide], for which the maximal effect (Emax) fell in the range of 76 to 100% and the EC50 is 1260 to 10000 nM.

Consider `COc1ccc(S(=O)(=O)N2C[C@@H](C)N(S(=O)(=O)c3ccc(OC)c(OC)c3)[C@@H](C)C2)cc1F` [Example 32, 1-{[3,4-bis(methyloxy)phenyl]sulfonyl}-4-{[3-fluoro-4-(methyloxy)phenyl]sulfonyl}-2,6-cis-dimethylpiperazine], for which the Emax is 51 to 75% and the EC50 is 126 to 1000 nM.

`COc1ccc(S(=O)(=O)N2CCN(S(=O)(=O)c3ccc(OC)c(OC)c3)[C@@H](C)[C@H]2C)cc1OC` [Example 40, 1,4-bis{[3,4-bis(methyloxy)phenyl]sulfonyl}-2,3-dimethylpiperazine] had an Emax of 51 to 75% and an EC50 of 126 to 1000 nM.

`COc1ccc(S(=O)(=O)N2CCN(S(=O)(=O)c3ccc(OC)c(OC)c3)CC(F)(F)C2)cc1OC` [Example 53, 1,4-bis{[3,4-bis(methyloxy)phenyl]sulfonyl}-6,6-difluorohexahydro-1H-1,4-diazepine]: the maximal response (Emax) fell in the range of 51 to 75% and the EC50 is 126 to 1000 nM.

The molecule `COc1ccc(S(=O)(=O)N(C)CCN(C)S(=O)(=O)c2ccc(OC)c(OC(F)(F)F)c2)cc1OC` [Example 31, N-methyl-N-{2-[methyl({4-(methyloxy)-3 [(trifluoromethyl)oxy]phenyl}sulfonyl)amino]ethyl}-3,4-bis(methyloxy)benzenesulfonamide] showed a maximal response (Emax) of 0 to 50% and an EC50 of 126 to 1000 nM.

As for `COc1ccc(S(=O)(=O)N(C[C@H]2CCCN2S(=O)(=O)c2ccc(OC)c(OC)c2)C(C)C)cc1OC` [Example 100, N-[((2R)-1-{[3,4-bis(methyloxy)phenyl]sulfonyl}-2-pyrrolidinyl)methyl]-N-(1-methylethyl)-3,4-bis(methyloxy)benzenesulfonamide], the Emax was over 100% and the EC50 was 126 to 1000 nM.

`COc1ccc(S(=O)(=O)N2CCN(S(=O)(=O)c3ccc(OC)c(OC)c3)CC2)cc1OC` [Example 4, 1,4-bis{[3,4-bis(methyloxy)phenyl]sulfonyl}piperazine] gave an Emax of 51 to 75% and an EC50 of 1260 to 10000 nM.

Molecule `CCN(C[C@H]1CCCN1S(=O)(=O)c1ccc(OC)c(OC)c1)S(=O)(=O)c1ccc(OC)c(OC)c1` [Example 98, N-[((2R)-1-{[3,4-bis(methyloxy)phenyl]sulfonyl}-2-pyrrolidinyl)methyl]-N-ethyl-3,4-bis(methyloxy)benzenesulfonamide] gave an Emax of 76 to 100% and an EC50 of under 126 nM.

With `COc1ccc(S(=O)(=O)N2CCCN(S(=O)(=O)c3ccc(OC)c(OC)c3)CC2)cc1F` [Example 7, 1-{[3,4-bis(methyloxy)phenyl]sulfonyl}-4-{[3-fluoro-4-(methyloxy)phenyl]sulfonyl}hexahydro-1H-1,4-diazepine], the maximal response (Emax) was in the range of 0 to 50% and the EC50 was 1260 to 10000 nM.

`COc1ccc(S(=O)(=O)N2CCN(S(=O)(=O)c3ccc(C)cc3OC)CC2)cc1OC` [Example 3, 1-{[3,4-bis(methyloxy)phenyl]sulfonyl}-4-{[4-methyl-2-(methyloxy)phenyl]sulfonyl}piperazine]: the Emax is 51 to 75% and the EC50 is 1260 to 10000 nM.
